Counter-ions that a name gives are not always drawn.
Assays:
LD50 in mice = conditions: mouse, in vivo
dogs = assay: Cardiac and Blood Pressure Effects in dogs (Table I); assay type: in vivo; conditions: for Contractile Potency ED50 / Contractile Potency ED100: i.v. infusion; for Blood Pressure Change at Effective dose ED50 / Heart Rate Increase at Effective dose ED50 / Blood Pressure Change at Effective dose ED100 / Heart Rate Increase at Effective dose ED100: i.v.

Structure (SMILES): CC(Cc1ccc(O)c(O)c1)NCCCc1ccc(O)cc1 (racemic) [3,4-dihydroxy-N-[3-(4-hydroxyphenyl)-n-propyl]-α-methyl-β-phenethylamine hydrobromide]
- LD50 (LD50 in mice): 82.7 ± 5.72 mg/kg

Structure (SMILES): CC(CCc1ccc(O)cc1)NCCc1ccc(O)c(O)c1 (racemic) [dl-, 3,4-dihydroxy-N-[3-(4-hydroxyphenyl)-1-methyl-n-propyl]-β-phenethylamine]
- LD50 (LD50 in mice): 73.2 ± 3.68 mg/kg
- Contractile Potency ED50 (dogs): 3 ± 1 µg/kg/min
- Contractile Potency ED100 (dogs): 10 ± 3 µg/kg/min
- Blood Pressure Change at Effective dose ED50 (dogs; at ED50): 3 ± 5 mm. Hg.
- Heart Rate Increase at Effective dose ED50 (dogs; at ED50): 13 ± 4 Beats/minute
- Blood Pressure Change at Effective dose ED100 (dogs; at ED100): 6 ± 6 mm. Hg.
- Heart Rate Increase at Effective dose ED100 (dogs; at ED100): 30 ± 4 Beats/minute

Structure (SMILES): CC(CCc1ccc(O)cc1)NCCc1ccc(O)c(O)c1 (single isomer, unassigned) [d-, d-3,4-dihydroxy-N-[3-(4-hydroxyphenyl)-1-methyl-n-propyl]-β-phenethylamine]
- Contractile Potency ED50 (dogs): 2.8 ± .3 µg/kg/min
- Contractile Potency ED100 (dogs): 6.1 ± .4 µg/kg/min
- Blood Pressure Change at Effective dose ED50 (dogs; at ED50): 8 ± 2 mm. Hg.
- Heart Rate Increase at Effective dose ED50 (dogs; at ED50): 11 ± 3 Beats/minute
- Blood Pressure Change at Effective dose ED100 (dogs; at ED100): 6 ± 3 mm. Hg.
- Heart Rate Increase at Effective dose ED100 (dogs; at ED100): 28 ± 7 Beats/minute

Structure (SMILES): CC(CCc1ccc(O)cc1)NCCc1ccc(O)c(O)c1 (single isomer, unassigned) [l-, l-3,4-dihydroxy-N-[3-(4-hydroxyphenyl)-1-methyl-n-propyl]-β-phenethylamine hydrochloride]
- activity on contractile force (in words) (dogs; Table I data): somewhat less active than either the d-isomer or dl-racemate on contractile force
- pressor activity (in words) (dogs; Table I data): marked pressor activity
- Contractile Potency ED50 (dogs; hydrochloride): 9 ± 2 µg/kg/min
- Contractile Potency ED100 (dogs; hydrochloride): 25 ± 5 µg/kg/min
- Blood Pressure Change at Effective dose ED50 (dogs; at ED50, hydrochloride): 39 ± 3 mm. Hg.
- Heart Rate Increase at Effective dose ED50 (dogs; at ED50, hydrochloride): 8 ± 5 Beats/minute
- Blood Pressure Change at Effective dose ED100 (dogs; at ED100, hydrochloride): 63 ± 4 mm. Hg.
- Heart Rate Increase at Effective dose ED100 (dogs; at ED100, hydrochloride): 28 ± 9 Beats/minute
